Structures can show the parent of a compound that is named as a salt.

TRPC6, sequence (Q9Y210 whole entry, species assumed): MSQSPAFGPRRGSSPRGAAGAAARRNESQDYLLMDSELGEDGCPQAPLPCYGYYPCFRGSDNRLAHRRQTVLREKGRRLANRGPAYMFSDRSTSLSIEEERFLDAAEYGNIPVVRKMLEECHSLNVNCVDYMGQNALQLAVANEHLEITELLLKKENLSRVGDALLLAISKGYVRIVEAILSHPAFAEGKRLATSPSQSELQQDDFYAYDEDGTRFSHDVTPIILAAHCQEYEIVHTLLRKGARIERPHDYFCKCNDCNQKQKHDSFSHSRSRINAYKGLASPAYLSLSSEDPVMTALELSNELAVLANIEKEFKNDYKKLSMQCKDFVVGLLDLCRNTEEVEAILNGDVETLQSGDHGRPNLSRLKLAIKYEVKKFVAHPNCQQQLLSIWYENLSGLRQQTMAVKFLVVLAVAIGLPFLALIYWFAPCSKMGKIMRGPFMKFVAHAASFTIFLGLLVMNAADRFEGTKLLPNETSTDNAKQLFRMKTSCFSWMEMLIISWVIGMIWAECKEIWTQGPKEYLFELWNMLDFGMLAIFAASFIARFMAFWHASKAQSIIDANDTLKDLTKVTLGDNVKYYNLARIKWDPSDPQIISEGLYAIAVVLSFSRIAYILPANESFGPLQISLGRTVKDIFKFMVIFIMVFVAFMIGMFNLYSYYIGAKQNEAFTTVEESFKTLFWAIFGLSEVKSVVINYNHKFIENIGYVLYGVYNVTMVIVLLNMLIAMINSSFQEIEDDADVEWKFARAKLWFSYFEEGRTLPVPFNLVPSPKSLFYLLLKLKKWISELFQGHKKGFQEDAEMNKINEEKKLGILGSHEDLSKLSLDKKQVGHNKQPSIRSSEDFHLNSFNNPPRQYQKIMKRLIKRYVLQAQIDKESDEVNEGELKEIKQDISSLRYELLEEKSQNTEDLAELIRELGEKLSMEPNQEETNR

The target of the assay is TRPC6 (Homo sapiens (Human), UniProt Q9Y210). The assay is described as follows: High throughput screening assay: fluorescent calcium (Fluo4/AM) assay of TRPC6 channel activation by GSK1702934A in HEK293/TREx cells. The format is cell-based. The conditions noted are these: HEK293/TREx cells stably transfected with TRPC6; agonist GSK1702934A; 7 concentrations 20 μM to 0.027 μM, triplicate. The text has this:
This screening assay measures TRPC6 (transient receptor potential cation channel, subfamily C, member 6) ion channel activation via addition either of the commercially available DAG ligand analogue OAG (1-oleoyl-2-acetyl-sn-glycerol) or of the TRPC6 agonist 1-[1-(4,5,6,7,8-pentahydrocyclohepta[2,1-d]thiophen-2-ylcarbonyl)-4-piperidyl]-3-hydrobenzimidazol-2-one (GSK1702934A). The assay utilizes a FLIPR fluorescent calcium sensor 4-(6-Acetoxymethoxy-2,7-difluoro-3-oxo-9-xanthenyl)-4′-methyl-2,2′-(ethylenedioxy)dianiline-N,N,N′,N′-tetraacetic acid tetrakis(acetoxymethyl) ester (Fluo4/AM) […]. Changes (increases) in intracellular membrane calcium concentration potential as measured by the fluorescent signal increase during membrane depolarization provide a measurement of channel activity.
The commercially available HEK293/TREx line (Invitrogen) was stably transfected with a TRPC6 construct and screened by conventional calcium imaging to find clones with TRPC6 expression following stimulation with 1 μg/ml tetracycline. These cells were maintained in the growth medium recommended by the manufacturer supplemented with 100 μg/ml hygromycin to promote retention of the TRPC6 construct. After growing to near confluency, cells were plated at a density of ^˜35,000 cells/well in 384 well CellBind plates (Corning) in the presence of 1 μg/ml tetracycline, and allowed to grow for 20-30 hrs. A nearly confluent monolayer resulted. Growth media was removed from the wells and cells were then loaded with […] Fluo4/AM diluted in Ringer's Solution (6.5 g NaCl, 0.42 g KCl, 0.25 g CaCl2) and 0.2 g of sodium bicarbonate; pH 7.4) supplemented with 1% Pluronic F-127 to a final concentration of 0.5 μM and incubated for 60 min, at room temperature. Dye solution was then removed from the cells by inverting plates with a sharp flick, and replaced with 25 μl Ringer's. Following ^˜0.5 hour for recovery from loading, cells were assayed using the Hamamatsu FDSS 6000 system, which permitted illumination at 485 nm. Frames were acquired at a rate of 0.2 Hz. During the assay, the plates were continuously vortexed, with pipette mixing of wells following addition of each reagent. For the screening assay, 26 μl of a diluted compound stock (at 50 μM) was added to each well for 2 minutes following the collection of a short (4 frame) baseline. 13 μl of agonist solution consisting of 125 nM GSK1702934A diluted in high-Ca2+Ringer solution (containing 90 mm Ca2+) was then added to each well, achieving a final concentration of 20 mm Ca2+ and 10 μM test compound. Data was collected for ^˜3 minutes following addition of high Ca2+Ringer. The fluorescent ratio for each well was divided by the initial fluorescent intensity for that well and the overall response was determined by averaging the fluorescent ratio of the last 4 frames acquired during the experiment excepting the final frame. Negative and Positive controls were included on each plate. Negative controls wells consisted of HEK293/TREx TRPC6 cells exposed to assay buffer and agonist solution, but no test compound. Positive control consisted of wells consisted of HEK293/TREx TRPC6 cells exposed to 25 μM 3-[(2-chlorophenoxy)methyl]phenyl piperidyl ketone (Chembridge) diluted in Ringer's solution and agonist solution. These controls defined zero percent and 100 percent block respectively, and intensity of each well was normalized to these values.
Compounds were tested in triplicate at all concentrations. Standard software was used to fit IC50 curves.
By IC50 is commonly meant the concentration at which inhibition is half-maximal. As to `COc1cc(C(=O)N2CCC(c3cnc(N)cc3OC3CC3)CC2)ncc1Oc1ccccc1` [Compound 84, (6-Amino-4-cyclopropoxy-3′,4′,5′,6′-tetrahydro-2′H-[3,4′]bipyridinyl-1′-yl)-[5-(phenoxy)-4-methoxy-pyridin-2-yl]-methanone], the IC50 worked out at 300 nM.
The result for `COc1cc(C(=O)N2CCC(c3cnc(N)cc3C)CC2)ncc1Oc1ccccc1` [Compound 10, (6-Amino-4-methyl-3′,4′,5′,6′-tetrahydro-2′H-[3,4′]bipyridinyl-1′-yl)-(4-methoxy-5-phenoxy-pyridin-2-yl)-methanone] reads 27 nM.
The result for `COc1cc(C(=O)N2CCN(c3cnc(N)cc3C)C[C@@H]2CO)ncc1Oc1ccccc1` [Compound 18, [(R)-4-(6-Amino-4-methyl-pyridin-3-yl)-2-hydroxymethyl-piperazin-1-yl]-(4-methoxy-5-phenoxy-pyridin-2-yl)-methanone] reads 31 nM.
The result for `COc1cc(C(=O)N2CCC(c3cnc(N)cc3OC)CC2)ncc1OC1CCCC1` [Compound 35, (6-Amino-4-methoxy-3′,4′,5′,6′-tetrahydro-2′H-[3,4′]bipyridinyl-1′-yl)-(5-cyclopentyloxy-4-methoxy-pyridin-2-yl)-methanone] reads 94 nM.
Turning to `COc1cc(C(=O)N2CCC(c3cnc(N)cc3OC)CC2)ncc1OCC1(C)CC1` [Compound 26, (6-Amino-4-methoxy-3′,4′,5′,6′-tetrahydro-2′H-[3,4′]bipyridinyl-1′-yl)-[4-methoxy-5-(1-methyl-cyclopropylmethoxy)-pyridin-2-yl]-methanone], the IC50 was determined as 71 nM.
`COc1cc(C(=O)N2CCC(c3ccc(N)nn3)CC2)ncc1Oc1ccc(OC2CC2)cc1` [Compound 40, [4-(6-Amino-pyridazin-3-yl)-piperidin-1-yl]-[5-(4-cyclopropoxy-phenoxy)-4-methoxy-pyridin-2-yl]-methanone]: the IC50 stood at 170 nM.
As to `COc1cc(C(=O)N2CCC(c3cnc(N)cc3OC)CC2)ncc1OCCc1ccccc1` [Compound 52, (6-Amino-4-methoxy-3′,4′,5′,6′-tetrahydro-2′H-[3,4′]bipyridinyl-1′-yl)-(4-methoxy-5-phenethyloxy-pyridin-2-yl)-methanone], the IC50 is 190 nM.
The result for `COc1cc(C(=O)N2CCN(c3ccc(N)nc3)CC2)ncc1Oc1ccccc1` [Compound 15, [4-(6-Amino-pyridin-3-yl)-piperazin-1-yl]-(4-methoxy-5-phenoxy-pyridin-2-yl)-methanone] reads 27 nM; that for `COc1cc(C(=O)N2CCC(c3ccc(N)nc3)CC2)ncc1Oc1ccccc1` [Compound 3, (6-Amino-3′,4′,5′,6′-tetrahydro-2′H-[3,4′]bipyridinyl-1′-yl)-(4-methoxy-5-phenoxy-pyridin-2-yl)-methanone], less than 27 nM.
`CCOc1cc(C(=O)N2CCC(c3ccc(N)nn3)CC2)ncc1Oc1ccc(F)cc1` [Compound 88, [4-(6-Amino-pyridazin-3-yl)-piperidin-1-yl]-[5-(4-fluoro-phenoxy)-4-ethoxy-pyridin-2-yl]-methanone]: the concentration for half-maximal inhibition (IC50) worked out at 750 nM.
The value for `COc1cc(C(=O)N2C3CCC2CN(c2cnc(N)cc2OC)C3)ncc1Oc1ccccc1` [Compound 51, [3-(6-Amino-4-methoxy-pyridin-3-yl)-3,8-diaza-bicyclo[3.2.1]oct-8-yl]-(4-methoxy-5-phenoxy-pyridin-2-yl)-methanone] was 290 nM.
Turning to `CCCOc1cnc(C(=O)N2CCC(c3ccc(N)nn3)CC2)cc1OC` [Compound 76, [4-(6-Amino-pyridazin-3-yl)-piperidin-1-yl]-(4-methoxy-5-propoxy-pyridin-2-yl)-methanone], the IC50 stood at 1800 nM.
The value for `COc1cc(C(=O)N2CCN(c3cnc(N)cc3OC)CC23CC3)ncc1Oc1ccc(F)cc1` [Compound 9, [7-(6-Amino-4-methoxy-pyridin-3-yl)-4,7-diaza-spiro[2.5]oct-4-yl]-[5-(4-fluoro-phenoxy)-4-methoxy-pyridin-2-yl]-methanone] was 27 nM; that for `COc1cc(N)nnc1C1CCN(C(=O)c2ccc(Oc3ccc(C(F)(F)F)cc3)cn2)CC1` [Compound 91, 5-Methoxy-6-(1-{5-[4-(trifluoromethyl)phenoxy]pyridine-2-carbonyl}piperidin-4-yl)pyridazin-3-amine trifluoroacetic acid] was 414 nM; that for `COc1cc(C(=O)N2CCC(c3ccc(N)nn3)CC2)ncc1OCc1ccc(F)cc1` [Compound 41, [4-(6-Amino-pyridazin-3-yl)-piperidin-1-yl]-[5-(4-fluoro-benzyloxy)-4-methoxy-pyridin-2-yl]-methanone] was 180 nM.
For the compound `CCCOc1cc(N)ncc1C1CCN(C(=O)c2cc(OC)c(Oc3ccccc3)cn2)CC1` [Compound 86, (6-Amino-4-propoxy-3′,4′,5′,6′-tetrahydro-2′H-[3,4′]bipyridinyl-1′-yl)-[5-(phenoxy)-4-methoxy-pyridin-2-yl]-methanone], the IC50 is 350 nM.
Regarding `COc1cc(C(=O)N2CCN(c3cnc(N)cc3OC)C[C@@H]2CO)ncc1Oc1ccccc1` [Compound 69, [(R)-4-(6-Amino-4-methoxy-pyridin-3-yl)-2-hydroxymethyl-piperazin-1-yl]-(4-methoxy-5-phenoxy-pyridin-2-yl)-methanone], the IC50 turned out to be 630 nM.
As for `COc1cc(C(=O)N2CCC(c3ccc(N)nn3)CC2)ncc1OCC1CCC1` [Compound 25, [4-(6-Amino-pyridazin-3-yl)-piperidin-1-yl]-(5-cyclobutylmethoxy-4-methoxy-pyridin-2-yl)-methanone], the IC50 stood at 70 nM.
The result for `COc1cc(C(=O)N2CCC(c3cnc(N)cc3OC)CC2)ncc1O[C@@H](C)C1CC1` [Compound 70, (6-Amino-4-methoxy-3′,4′,5′,6′-tetrahydro-2′H-[3,4′]bipyridinyl-1′-yl)-[5-((S)-1-cyclopropyl-ethoxy)-4-methoxy-pyridin-2-yl]-methanone] reads 640 nM; that for `COc1cc(C(=O)N2CCC(c3cnc(N)cc3OC)CC2)ncc1OC[C@H]1C[C@@H](C(F)(F)F)C1` [Compound 93, TFA salt of 4-Methoxy-5-[1-(4-methoxy-5-{[3-(trifluoromethyl)-cyclobutyl]methoxy}-pyridine-2-carbonyl)piperidin-4-yl]pyridin-2-amin], 595 nM.
As to `COc1cc(C(=O)N2CCC(c3ccc(N)nn3)CC2)ncc1Oc1ccccc1` [Compound 16, [4-(6-Amino-pyridazin-3-yl)-piperidin-1-yl]-(4-methoxy-5-phenoxy-pyridin-2-yl)-methanone], the IC50 was determined as 27 nM.
The value for `COc1cc(C(=O)N2CCN(c3cnc(N)cc3OC)CC2)ncc1Oc1ccccc1` [Compound 5, [4-(6-Amino-4-methoxy-pyridin-3-yl)-piperazin-1-yl]-(4-methoxy-5-phenoxy-pyridin-2-yl)-methanone] was 27 nM; that for `COc1cc(C(=O)N2C3CCC2CN(c2cnc(N)cc2OC)C3)ncc1Oc1ccc(F)cc1` [Compound 38, [3-(6-Amino-4-methoxy-pyridin-3-yl)-3,8-diaza-bicyclo[3.2.1]oct-8-yl]-[5-(4-fluoro-phenoxy)-4-methoxy-pyridin-2-yl]-methanone] was 170 nM.
The result for `COc1ccc(Oc2cnc(C(=O)N3CCC(c4ccc(N)nc4)CC3)cc2OC)cc1` [Compound 22, (6-Amino-3′,4′,5′,6′-tetrahydro-2′H-[3,4′]bipyridinyl-1′-yl)-[4-methoxy-5-(4-methoxy-phenoxy)-pyridin-2-yl]-methanone] reads 46 nM; that for `CCOc1cc(N)nnc1C1CCN(C(=O)c2cc(OC)c(Oc3ccc(C(F)(F)F)cc3)cn2)CC1` [Compound 87], 620 nM.
Regarding `COc1cc(C(=O)N2CCC(c3cnc(N)cc3OC)CC2)ncc1Oc1ccc(F)cc1` [Compound 4, (6-Amino-4-methoxy-3′,4′,5′,6′-tetrahydro-2′H-[3,4′]bipyridinyl-1′-yl)-[5-(4-fluoro-phenoxy)-4-methoxy-pyridin-2-yl]methanone], the IC50 is less than 27 nM.

The values are drawn from patent publication US10800757B2, “Inhibitors of TRPC6” (Boehringer Ingelheim International GmbH, priority 2017, dated 2020).
